Measured values from patent US20220062299A1, “USE OF GLUCOCORTICOID STEROIDS IN PREVENTING AND TREATING CONDITIONS OF MUSCLE WASTING, AGING AND METABOLIC DISORDER” (NORTHWESTERN UNIVERSITY, priority 2018, published 2022).

What was measured:
mdx mice = experiment: Dosing of metabolic and endocrine biomarkers in blood, serum and tissues, mdx mice, long-term (40 weeks) weekly prednisone; format: in vivo
Experimental: Animal handling and steroid regimens. Mice were housed in a pathogen-free dedicated vivarium in accordance with Institutional Animal Care and Use Committee (IACUC) guidelines. Euthanasia was performed through carbon dioxide inhalation followed by cervical dislocation and heart removal. All methods using living animals in this study were performed in ethical accordance with the American Veterinary Medical Association (AVMA) and under protocols fully approved by both the Institutional Animal Care and Use Committee (IACUC) at Northwestern University Feinberg School of Medicine (protocol number ISO00000761). Consistent with the ethical approvals, all efforts were made to minimize suffering. Mice were fed ad libitum with Mouse Breeder Sterilizable Diet (#7904; Harlan Teklad, Indianapolis, Ind.) and maintained on a 12-hour light/dark cycle. mdx mice from the DBA/2J background were obtained from the Jackson Laboratory (Bar Harbor, Me.; stock #013141) and interbred. Male mice were used for reported experiments. Age at start was approximately 6 months for short-term experiments, approximately 6 weeks for long-term experiments. Dysferlin-null (Dysf-null) mice from the 129T2/SvEmsJ background were previously characterized (Demonbreun et al., 2011; Demonbreun et al., 2014). Age at start was approximately 9 months for long-term experiments. For experiments with Dysf-null and wildtype mice, both females and males (approximately 1:1 ratio) were randomized in treatment groups. […] Dosing was based on weekly weight measurements (1 mg/kg body weight, (Sali et al., 2012)) in 100 μl total PBS volume per dose. Mice were injected daily via intraperitoneal injection at 7 AM. On injection days, stock solutions stored at −20° C. were diluted into sterile Eppendorf tubes containing sterile phosphate buffered saline (PBS) (#14190; Thermo Fisher, Waltham, Mass.). Puromycin (cat #A1113803, Thermo Scientific, Waltham, Mass.) was administered i.p. as 0.040 μmol/body g, and tissues were snap-frozen 30 minutes after injection. Sterile BD Micro-Fine IV Insulin Syringes (#14-829-1A; Fisher Scientific, Waltham, Mass.) were used to inject the intraperitoneal cavity of non-sedated animals. All animal analyses both during treatment and at endpoint were conducted blinded to treatment groups.
Dosing of metabolic and endocrine biomarkers. Glycogen was quantitated using the Glycogen Assay Kit (#ab65620; Abcam, Cambridge, Mass.) from approximately 25 mg frozen-pulverized whole tissue, following manufacturer's instructions and internal standards for calculating μg/mg values. For measurement of whole-tissue ATP/NAD^+ levels, approximately 25 mg frozen-pulverized tissue was extracted in 10% perchloric acid and neutralized in 0.75 M K2CO3, as previously described (Ramsey et al., 2009). NAD+ and ATP were measured by high-pressure liquid chromatography (HPLC) with Shimadzu LC-20A pump (Shimadzu Scientific Instr Inc, Addison, Ill.) and UV-VIS detector, using a Supelco LC-18-T column (15 cm×[…]; #58970-U; Millipore-Sigma, St Louis, Mo.). […] ATP and NAD^+ eluted as sharp peaks at 3 and 14 minutes, respectively, and were normalized to tissue weight of frozen liver tissue for calculating pmol/mg values. Corticosterone was measured in mouse serum and cortisol was measured in human serum using dedicated ELISA kits (#ADI-900-097, Enzo Life Science, Farmingdale, N.Y.; #K7430-100, BioVision, Milpitas, Calif.) according to manufacturer's instructions and internal standards to calculate ng/ml values. Insulin levels were quantitated in mouse and human serum with species-specific ELISA kits (#10-1247-01 (mouse-specific); #10-1113-01 (human-specific); Mercodia, Uppsala, Sweden), following manufacturer's instructions and internal standards to calculate ng/ml values. Free fatty acids were quantitated using Enzychrom Free Fatty Acid Assay kit (#EFFA-100; BioAssay Systems, Hayward, Calif.), following kit's instructions and standards to calculate μM (serum) and nmol/mg (tissue) values.

[1] = system: isolated dystrophic myofibers; experiment: 2-NBDG uptake assay in live myofibers; format: in vivo, mouse; settings: mdx mice; weekly prednisone
Experimental: 2-NBDG uptake assay and glycemia/lactate monitoring. 2-NBDG uptake assay in live myofibers was conducted adapting previously reported conditions (Zou et al., 2005). FDB muscles were collected and carefully treated with collagenase type II and hand pipetting to liberate single myofibers, following reported procedures (Demonbreun and McNally, 2015). Myofibers from two FDB muscles were collected in 1 ml Ringer's solution (for 1 l, 7.2 g NaCl, 0.17 g CaCl2, 0.37 g KCl; pH, 7.4). 200 μl of myofiber suspension were dispensed per well of chambered coverglass (#155382; Thermo Fisher, Waltham, Mass.) and imaged as baseline condition for both transmitted light (1 ms integration) and green fluorescent channels (100 ms integration) at the Zeiss Axio Observer A1 microscope, using 20× short-range objective and the ZEN 2 software (version 2011; Zeiss, Jena, Germany). […] 2-NBDG uptake was quantitated as relative fluorescent units, calculated as intra-myofiber fluorescence after incubation subtracted of average baseline fluorescence. Fluorescence intensity was quantitated through serial analysis of acquired images (3 areas of approximately 85 μm^2 were analyzed for average fluorescence value per myofiber; >10 myofibers were analyzed per mouse) with ImageJ software (Schneider et al., 2012). […]

C[C@]12C=CC(=O)C=C1CC[C@@H]1[C@@H]2C(=O)C[C@@]2(C)[C@H]1CC[C@]2(O)C(=O)CO [prednisone, Prednisone]
blood glucose (mdx mice): no change
serum BCAA (mdx mice; mean ± s.e.m): 462 ± 7.32 µM
serum corticosterone (mdx mice; mean ± s.e.m): 133 ± 8.36 ng/mL
serum creatine kinase (mdx mice; mean ± s.e.m): 3.1 ± 0.16 U/ml
serum free fatty acids (mdx mice; mean ± s.e.m): 547 ± 10.4 µM
serum insulin (mdx mice; mean ± s.e.m): 1.51 ± 0.14 ng/mL
serum β-hydroxybutyrate (mdx mice; mean ± s.e.m): 372 ± 5 µM
tissue BCAA, diaphragm (mdx mice; mean ± s.e.m): 49.4 ± 2.14 nmol/mg
tissue BCAA, heart (mdx mice; mean ± s.e.m): 1.74 ± 0.08 nmol/mg
tissue BCAA, omental fat (mdx mice; mean ± s.e.m): 23.5 ± 0.43 nmol/mg
tissue BCAA, quadriceps (mdx mice; mean ± s.e.m): 95.3 ± 3.21 nmol/mg
tissue free fatty acids, heart (mdx mice; mean ± s.e.m): 0.211 ± 0.01 nmol/mg
tissue free fatty acids, omental fat (mdx mice; mean ± s.e.m): 3.91 ± 0.12 nmol/mg
tissue free fatty acids, quadriceps (mdx mice; mean ± s.e.m): 0.752 ± 0.05 nmol/mg
tissue β-hydroxybutyrate, diaphragm (mdx mice; mean ± s.e.m): 12.9 ± 0.89 nmol/mg
tissue β-hydroxybutyrate, heart (mdx mice; mean ± s.e.m): 20.2 ± 0.51 nmol/mg
tissue β-hydroxybutyrate, omental fat (mdx mice; mean ± s.e.m): 23 ± 1.71 nmol/mg
tissue β-hydroxybutyrate, quadriceps (mdx mice; mean ± s.e.m): 24.7 ± 1.58 nmol/mg
myogenic glucose uptake (2-NBDG in isolated myofibers) [1]: enhanced
